Results taken from patent US4753949A, “2-chloronicergoline having antihypoxic activity” (Richter Gedeon Vegyeszeti Gyar Rt., priority 1985, dated 1988).
pIC50: −log10 of the molar value.

Assays:
[1] = Antihypoxic effect: survival time under hypobaric hypoxic conditions (170 mmHg); format: in vivo, rats (male SHR); conditions: for Antihypoxic effect, survival time as % of the control: rats, 60 min before, control 3.3 ± 0.19 min
Method: (§1) The studies were carried out on male SHR rats weighing 160 to 180 g as well as on CFLP mice of both sexes weighing 18 to 21 g. The compounds to be tested were orally administered in a volume of 5 ml/kg of body-weight (in the case of rats) or in a volume of 10 ml/kg of body-weight (in case of mice) at the 60th minute before beginning the experiment.
(§2) The results are expressed as percentages.
Investigation of the antihypoxic effect
[I. Baumel et al.: Proc. Soc. Exp. Ther. Biol. N.Y. 132, 629 (1969]
Rats (n=5) were treated with various doses of the compounds to be tested and after 60 minutes the survival time was measured under hypobaric hypoxic conditions (170 mmHg). In the Table, the survival time is expressed as the percentage of that of the control group.

[2] = Learning-facilitating effect: one-trial passive avoidance; format: in vivo, mice (CFLP); conditions: for Facilitation of learning, avoidance latency period as % of the control: 5.0 mg/kg p.o., mice, retest after one week, control latency 164.0 ± 34.4 sec (nicergoline), 77.0 ± 16.4 sec (2-chloronicergoline)
Method: as §1, §2
Investigation of the learning-facilitating effect
[W. B. Essmann and H. Alpern: Psychol. Rep. 41, 731 (1964)]
Mice (n=10) were treated with 5 mg/kg doses of the compounds to be tested, then the animals were conditioned by the one-trial passive avoidance method. The animals were placed on the platform of the test box, whereupon after entering into the dark box, they received an electric footshock (1.5 mA, 0.3 sec). One week later, the animals were retested: the mean of the latency period of the entering (avoidance) was compared to the control value and expressed as the percentage thereof.

[3] = molecular target: T1, α2-adrenergic receptor (Rattus norvegicus, UniProt P22909); assay: biochemical
T1 sequence (P22909 1-465): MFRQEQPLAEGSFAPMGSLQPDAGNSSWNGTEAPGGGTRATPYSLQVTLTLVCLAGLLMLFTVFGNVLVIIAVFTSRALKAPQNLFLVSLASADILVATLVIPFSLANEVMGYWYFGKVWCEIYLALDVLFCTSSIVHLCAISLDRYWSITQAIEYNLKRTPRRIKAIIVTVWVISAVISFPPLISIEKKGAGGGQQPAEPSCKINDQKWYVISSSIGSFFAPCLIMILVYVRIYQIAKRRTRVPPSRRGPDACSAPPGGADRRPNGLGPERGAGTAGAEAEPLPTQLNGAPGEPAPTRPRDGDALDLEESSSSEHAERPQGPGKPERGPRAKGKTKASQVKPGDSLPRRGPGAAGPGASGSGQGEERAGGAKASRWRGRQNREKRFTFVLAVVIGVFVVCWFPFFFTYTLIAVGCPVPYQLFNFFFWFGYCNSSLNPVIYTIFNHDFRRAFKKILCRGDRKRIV
Method: (§3) For the determination of the non-specific binding, 10 μmoles of phentolamine were used. Investigation of the α2 -adrenergic receptor binding
(§4) Hannover Wistar rats were decapitated, their cortexes were prepared and homogenized in a 30-fold volume of a buffer solution (50 μmoles of TRIS HCl, at pH 7.4). The membrane was centrifuged at 45000 g twice for 15 minutes and then suspended in the buffer in a concentration of 50 ml/g (in a protein concentration of 0.9 to 1.0 mg/ml).
(§5) For investigating the α2 -receptor binding, a membrane preparation, a ligand (1.0 nmole of ^3 H Rx 781094=^3 H-1 dazoxane) and the compound to be tested were used in a total volume of 1 ml. After an incubation at 23° C. for 20 minutes, the samples were filtered through a Whatman GF/B filter and washed 4 times with 4 ml of buffer solution each.
(§6) For the determination of the non-specific binding, 10 μmoles of phentolamine were used.

[4] = molecular target: T1, α2-adrenergic receptor; conditions: versus nicergoline
Method: as §3, §4, §5, §6

[5] = Antagonism of the acquisition-inhibitory effect of hypoxia (shuttle box, normobaric hypoxia, 6% O2); format: in vivo, rats (male SHR); conditions: for Antagonism of the acquisition-inhibitory effect of hypoxia, CAR Δ %: rats, third day, 6% O2
Method: as §1, §2
Antagonism of the acquisition-inhibitory effect of hypoxia
Rats (n=4) were daily treated with various doses of the compounds to be tested, then conditioned in an automatic six-channel shuttle box (VKI) for 3 days [with the following parameters: 50 cycles/day, 15 seconds intersignal period, 15 seconds light stimulus, 10 seconds light and electric footshock (0.8 mA)] under normobaric hypoxic conditions (6% O2). The values of the conditioned avoidance responses on the third day were expressed as the percentage of the deviation from the control value (CAR Δ%).

[6] = molecular target: α1-adrenergic receptor; assay: α1-adrenergic receptor binding (3H-prazosine); set-up: species or system Hannover Wistar rats; conditions: for IC50 value of α-adrenergic receptor activity (in words) / α-adrenergic receptor activity compared between 2-chloronicergoline and nicergoline (in words): Table 2 discussion; for pIC50: rat cortex membrane, 0.5 nmole 3H-prazosine, 23° C., 30 min, pH 8
[7] = molecular target: T2, D-2 receptor (Rattus norvegicus, UniProt P61169); assay: D-2 receptor binding (3H-spiroperidol); set-up: species or system Hannover Wistar rats; conditions: for pIC50: rat striatum, 0.5 nmole 3H-spiroperidol, 37° C., 15 min, pH 7.4
T2 construct: the striatum from their cortex was prepared; from tissue; host or cells: striatum membranes of Hannover Wistar rats
Method: Investigation of the D-2 receptor binding
Hannover Wistar rats were decapitated and the striatum from their cortex was prepared. The striata were homogenized in a 10-fold volume of a cold buffer solution (50 mmoles of TRIS HCl, 120 mmoles of NaCl, 2 mmoles of KCl, 1 mmole of MgCl2 and 5 mmoles of CaCl2 at pH 7.4) and centrifuged at 45000 g for 15 minutes.
For investigating the D-2 receptor binding, a membrane preparation, a buffer, a ligand (0.5 nmole of ^3 H-spiroperidol) and the compound to be tested in a defined concentration were used in a total volume of 2 ml.

[8] = tested on: 45Ca2+ uptake into synaptosomes; assay: 45Ca2+ uptake into synaptosomes; format: biochemical; conditions: rat brain cortex synaptosomes, K+ (45 mmoles) induced, 37° C., pre-incubation 20 min; read-out: IC50 45Ca2+ (synaptosomal uptake)
Method: Investigation of the ^45 Ca^2+ uptake into synaptosomes
The synaptosomal fraction was prepared from rat brain cortex according to the method of Wu et al. [J. Neurochem. 39, 700 (1982)], with a protein content of 20 mg/ml.
For the experiment, a buffer solution (112 mmoles of NaCl, 5 mmoles of KCl, 1.3 mmoles of MgCl2, 1.2 mmoles of NaH2 PO4, 1.2 mmoles of CaCl2, 10 mmoles of glucose and 20 mmoles of TRIS adjusted to pH 7 by carbogen at 37° C.) was used. The mixture containing the buffer solution, the compound to be tested and 1 mg of synaptosomes in a total volume of 1 ml was pre-incubated at 37° C. for 20 minutes and then, the K^+ (45 mmoles) induced ^45 Ca^2+ […] and, for control, the Na^+ (45 mmoles) induced ^45 Ca^2+ uptake were measured. The reaction was stopped by adding 5 ml of a buffer solution (120 mmoles of NaCl, 5 mmoles of KCl, 5 mmoles of EGTA and 20 mmoles of TRIS, at pH 7.4). […] The radioactivity remaining on the filter was determined in 10 ml of scintillation solution.

[9] = tested on: α-adrenergic receptor; conditions: Bernardi et al. 1975; cited from earlier work
[10] = literature; cited from earlier work

T2 sequence (P61169 whole entry): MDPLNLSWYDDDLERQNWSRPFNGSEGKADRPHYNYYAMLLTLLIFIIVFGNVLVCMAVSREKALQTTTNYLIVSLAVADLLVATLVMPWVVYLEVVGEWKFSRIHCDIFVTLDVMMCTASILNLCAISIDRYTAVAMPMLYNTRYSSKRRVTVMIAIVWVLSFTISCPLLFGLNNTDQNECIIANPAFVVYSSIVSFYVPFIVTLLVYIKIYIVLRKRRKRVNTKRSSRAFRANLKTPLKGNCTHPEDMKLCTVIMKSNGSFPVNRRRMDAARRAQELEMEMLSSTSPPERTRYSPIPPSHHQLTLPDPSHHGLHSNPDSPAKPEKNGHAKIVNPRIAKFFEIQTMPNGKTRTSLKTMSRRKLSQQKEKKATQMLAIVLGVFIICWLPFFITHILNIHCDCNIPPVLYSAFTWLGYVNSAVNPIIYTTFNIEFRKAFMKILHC

SMILES | hypoxic tolerance (in words) ([1]; 1.0 mg/kg) | Antihypoxic effect, survival time as % of the control ([1]; 1.0 mg/kg p.o.) [%] | Antihypoxic effect, survival time as % of the control ([1]; 2.5 mg/kg p.o.) [%] | Facilitation of learning, avoidance latency period as % of the control [2] [%] | learning-facilitating effect compared with nicergoline (in words) ([2]; same doses, versus nicergoline) | pIC50 [3] | α2-adrenoceptor activity, times as high as that of nicergoline [4] | Antagonism of the acquisition-inhibitory effect of hypoxia, CAR Δ % ([5]; 2.5 mg/kg p.o.) [%] | dose normalizing deteriorated performance under normobaric hypoxia, times lower than that of nicergoline ([5]; versus nicergoline) [times] | IC50 value of α-adrenergic receptor activity (in words) [6] | α-adrenergic receptor activity compared between 2-chloronicergoline and nicergoline (in words) [6] | pIC50 [6] | α-adrenoceptor selectivity (in words) ([6]; shown by D-2/α1 selectivity ratio) | pIC50 [7] | Selectivity ratio D-2/α1 ([7]; ratio of IC50 values) [nmole/nmole] | D-2 receptor activity, times lower than that of nicergoline ([7]; versus nicergoline) [times] | pIC50 [8] | α-adrenerg blocking effect (in words) [9] | vasodilatory effect (in words) [10] | Antagonism of the acquisition-inhibitory effect of hypoxia, CAR Δ % ([5]; 10.0 mg/kg p.o.) [%]
CO[C@]12C[C@@H](COC(=O)c3cncc(Br)c3)CN(C)[C@@H]1Cc1c(Cl)n(C)c3cccc2c13 [2-Chloronicergoline, 2-chloronicergoline] | significantly increased | 155 | 276 | 182 | significantly better than that of nicergoline | 7.62 | about 13 times | 150 | 4 | low | practically identical | 8.02 | pronounced | 6.06 | 92.3 | 12 | 5.15 | – | – | –
CO[C@]12C[C@@H](COC(=O)c3cncc(Br)c3)CN(C)[C@@H]1Cc1c(Br)n(C)c3cccc2c13 [2-bromonicergoline] | – | – | – | – | – | – | – | – | – | – | – | – | – | – | – | – | – | α-adrenerg blocking effect | vasodilatory | –
CO[C@]12C[C@@H](COC(=O)c3cncc(Br)c3)CN(C)[C@@H]1Cc1cn(C)c3cccc2c13 [Nicergoline, 1,6-dimethyl-10α-methoxyergoline-8β-methanol 5-bromonicotinate] | – | 103 | 109 | 131 | – | 6.75 | – | – | – | low | practically identical | 8.28 | – | 7.15 | – | – | 4.57 | – | peripheral vasodilatory agent | 150
